Test results reported in patent US20250032623A1, “HETEROBIFUNCTIONAL COMPOUNDS AND THEIR USE IN TREATING DISEASE” (HALDA THERAPEUTICS OPCO, INC., priority 2021, published 2025).

How the values were obtained:
HEK293 cells = test: Cellular growth inhibition assay (CellTiter-Glo), HEK293 cells; assay type: cell-based; conditions: Homo sapiens, 72 h, three days compound treatment, CellTiter-Glo 2.0, read-out: CTG HEK293 GI50
Method in brief: (§1)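 HEK293 or HeLa cells seeded at 500 cells/well in DMEM with 10% FBS, treated after 24 h with titrated compound for three days at 37 °C, 5% CO2. CellTiter-Glo 2.0 luminescence read on Day 0 and Day 3, normalized to DMSO, four-parameter fit giving GI50.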

HeLa cells = test: Cellular growth inhibition assay (CellTiter-Glo), HeLa cells; assay type: cell-based; conditions: Homo sapiens, 72 h, three days compound treatment, CellTiter-Glo 2.0, read-out: CTG HELA GI50
Method in brief: as §1

KRAS G12C = target: T1, KRAS G12C (Homo sapiens, UniProt P01116, G12C); test: KRAS G12C nucleotide exchange assay (SOS1 mediated, HTRF); assay type: biochemical; conditions: 1 hr pre-incubation at RT, read-out: IC50 (inhibition of KRas G12C)
T1 construct: Kras (aa 2-169), GST; purchased Reaction Biology Corporation (RBC)
T1 sequence (P01116 2-169 isoform P01116-2 G12C): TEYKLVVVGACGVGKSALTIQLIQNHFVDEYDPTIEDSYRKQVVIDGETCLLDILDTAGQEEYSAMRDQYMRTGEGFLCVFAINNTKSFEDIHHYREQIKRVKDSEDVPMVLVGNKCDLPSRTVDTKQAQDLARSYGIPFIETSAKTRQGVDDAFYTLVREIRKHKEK
Procedure: Exemplary compounds were tested for ability to inhibit KRas G12C.
KRAS target engagement (IC50 determination) was performed using a KRAS G12C nucleotide exchange assay (Reaction Biology Corporation). Specifically, compounds were tested against KRAS G12C in 10-point concentration IC50 mode with 3-fold serial dilution at a starting concentration of 10 μM. ARS1620 was used as a control. Compounds were pre-incubated with protein for 1 hr at RT. Parameters for the assay were:
In the method, Kras was mixed with a-GST Tb antibody (1.5× solution) and […] was delivered to reaction wells. Compounds were delivered using acoustic dispenser (Echo, Labcyte). Kras/aGST-Tb Ab/compound mixture was incubated for 1 hour at room temperature. A 3× solution of SOS1 and GTP* was prepared in reaction buffer. A […] aliquot of SOS1/GTP* solution was added to reaction well to initiate the exchange reaction. No—SOS1 reaction or max compound concentration was used as blank. IC50 determination was performed using a Sigmoidal dose response (variable slope) equation.

Row | Structure (SMILES) | GI50 (HEK293 cells) [nM] | GI50 (HeLa cells) [nM] | IC50 (KRAS G12C) [nM]
1 | CN(C/C=C/C(=O)N1CCN(c2nc(OC[C@@H]3CCCN3C)nc3c2CCN(c2cccc4cccc(Cl)c24)C3)C[C@@H]1CC#N)CCOCCOCCOCCOCCOCCOCCON(C)C(=O)N1N=C(c2cc(F)ccc2F)SC1(CCCN)c1ccccc1 (some centres unmarked) [Compound I-78] | 500 to 1500 | < 500 | < 100
2 | CN(C/C=C/C(=O)N1CCN(c2nc(OC[C@@H]3CCCN3C)nc3c2CCN(c2cccc4cccc(Cl)c24)C3)C[C@@H]1CC#N)CCOCCOCCOCCOCCOCCOCCOCCOCCON(C)C(=O)N1N=C(c2cc(F)ccc2F)SC1(CCCN)c1ccccc1 (some centres unmarked) [Compound I-80] | 500 to 1500 | < 500 | < 100
3 | CC[C@@H]1C(=O)N(C)c2cnc(Nc3ccc(C(=O)NCCOCCN4CCN(C/C=C/C(=O)N5CCN(c6nc(OC[C@@H]7CCCN7C)nc7c6CCN(c6cccc8cccc(Cl)c68)C7)C[C@@H]5CC#N)CC4)cc3OC)nc2N1C1CCCC1 [Compound I-82] | < 500 | < 500 | < 100
4 | C=C(F)C(=O)N1CCN(c2nc(OC[C@@H]3CCCN3CCCOCCOCCn3cc(CNc4cc(N5CCCC[C@H]5CCO)nc5c(CC)cnn45)ccc3=O)nc3c2CCN(c2cccc4cccc(Cl)c24)C3)C[C@@H]1CC#N [Compound I-87, 2-[(2S)-4-[7-(8-chloro-1-naphthyl)-2-[[(2S)-1-[3-[2-[2-[5-[[[3-ethyl-5-[(2S)-2-(2-hydroxyethyl)-1-piperidyl]pyrazolo[1,5-a]pyrimidin-7-yl]amino]methyl]-2-oxo-1-pyridyl]ethoxy]ethoxy]propyl]pyrrolidin-2-yl]methoxy]-6,8-dihydro-5H-pyrido[3,4-d]pyrimidin-4-yl]-1-(2-fluoroprop-2-enoyl)piperazin-2-yl]acetonitrile] | 500 to 1500 | 500 to 1500 | < 100
5 | C=C(F)C(=O)N1CCN(c2nc(OC[C@@H]3CCCN3CCCOCCOCCOc3ccc(CNc4cc(N5CCCC[C@H]5CCO)nc5c(CC)cnn45)cn3)nc3c2CCN(c2cccc4cccc(Cl)c24)C3)C[C@@H]1CC#N [Compound I-88, 2-[(2S)-4-[7-(8-chloro-1-naphthyl)-2-[[(2S)-1-[3-[2-[2-S[[5-[[[3-ethyl-5-[(2S)-2-(2-hydroxyethyl)-1-piperidyl]pyrazolo[1,5-a]pyrimidin-7-yl]amino]methyl]-2-pyridyl]oxy]ethoxy]ethoxy]propyl]pyrrolidin-2-yl]methoxy]-6,8-dihydro-5H-pyrido[3,4-d]pyrimidin-4-yl]-1-(2-fluoroprop-2-enoyl)piperazin-2-yl]acetonitrile] | 500 to 1500 | 500 to 1500 | < 100
6 | CCc1cnn2c(NCc3ccc(OCCOCCOCCN(C)C/C=C/C(=O)N4CCN(c5nc(OC[C@@H]6CCCN6C)nc6c5CCN(c5cccc7cccc(Cl)c57)C6)C[C@@H]4CC#N)nc3)cc(N3CCCC[C@H]3CCO)nc12 [Compound I-89] | 500 to 1500 | < 500 | < 100
7 | CCc1cnn2c(NCc3ccc(OCCN(C)C/C=C/C(=O)N4CCN(c5nc(OC[C@@H]6CCCN6C)nc6c5CCN(c5cccc7cccc(Cl)c57)C6)C[C@@H]4CC#N)nc3)cc(N3CCCC[C@H]3CCO)nc12 [Compound I-91, 2-[(2S)-4-[7-(8-chloro-1-naphthyl)-2-[[(2S)-1-methylpyrrolidin-2-yl]methoxy]-6,8-dihydro-5H-pyrido[3,4-d]pyrimidin-4-yl]-1-[(E)-4-[2-[[5-[[[3-ethyl-5-[(2S)-2-(2-hydroxyethyl)-1-piperidyl]pyrazolo [1,5-a]pyrimidin-7-yl]amino]methyl]-2-pyridyl]oxy]ethyl-methyl-amino]but-2-enoyl]piperazin-2-yl]acetonitrile] | < 500 | < 500 | < 100
8 | CCc1cnn2c(NCc3ccc(OCCOCCOCCOCCOCCOCCOCCOCCOCCN(C)C/C=C/C(=O)N4CCN(c5nc(OC[C@@H]6CCCN6C)nc6c5CCN(c5cccc7cccc(Cl)c57)C6)C[C@@H]4CC#N)nc3)cc(N3CCCC[C@H]3CCO)nc12 [Compound I-93, 2-((S)-4-(7-(8-chloronaphthalen-1-yl)-2-(((S)-1-methylpyrrolidin-2-yl)methoxy)-5,6,7,8-tetrahydropyrido[3,4d]pyrimidin4-yl)-1-((E)-1-((5-(((3-ethyl-5-((S)-2-(2-hydroxyethyl)piperidin-1-yl)pyrazolo[1,5-a]pyrimidin-7-yl)amino)methyl)pyridin-2-yl)oxy)-27-methyl-3,6,9,12,15,18,21,24-octaoxa-27-azahentriacont-29-en-31-oyl)piperazin-2-yl)acetonitrile] | 1500 to 5000 | < 500 | < 100
9 | CN(C/C=C/C(=O)N1CCN(c2nc(OC[C@@H]3CCCN3C)nc3c2CCN(c2cccc4cccc(Cl)c24)C3)C[C@@H]1CC#N)CCOCCOCCOCCOCCON(C)C(=O)N1N=C(c2cc(F)ccc2F)SC1(CCCN)c1ccccc1 (stereo partly drawn) [Compound I-96, 2-(3-aminopropyl)-N-[2-[2-[2-[2-[2-[[(E)-4-[(2S)-4-[7-(8-chloro-1-naphthyl)-2-[[(2S)-1-methylpyrrolidin-2-yl]methoxy]-6,8-dihydro-5H-pyrido[3,4-d]pyrimidin-4-yl]-2-(cyanomethyl)piperazin-1-yl]-4-oxo-but-2-enyl]-methylamino]ethoxy]ethoxy]ethoxy]ethoxy]ethoxy]-5-(2,5-difluorophenyl)-N-methyl-2-phenyl-1,3,4-thiadiazole-3-carboxamide] |  |  | < 100
10 | C=C(F)C(=O)N1CCN(c2nc(OC[C@@H]3CCCN3CCCN(C)C(=O)N3N=C(c4cc(F)ccc4F)S[C@@]3(CCCN)c3ccccc3)nc3c2CCN(c2cccc4cccc(Cl)c24)C3)C[C@@H]1CC#N [Compound I-97, (2S)-2-(3-aminopropyl)-N-[3-[(2S)-2-[[7-(8-chloro-1-naphthyl)-4-[(3S)-3-(cyanomethyl)-4-(2-fluoroprop-2-enoyl)piperazin-1-yl]-6,8-dihydro-SH-pyrido[3,4-d]pyrimidin-2-yl]oxymethyl]pyrrolidin-1-yl]propyl]-5-(2,5-difluorophenyl)-N-methyl-2-phenyl-1,3,4-thiadiazole-3-carboxamide] |  | 500 to 1500 | < 100
11 | C=C(F)C(=O)N1CCN(c2nc(OC[C@@H]3CCCN3CCCNC(=O)c3ccc(Nc4ncc5c(n4)N(C4CCCC4)[C@H](CC)C(=O)N5C)c(OC)c3)nc3c2CCN(c2cccc4cccc(Cl)c24)C3)C[C@@H]1CC#N [Compound I-102, N-[3-[(2S)-2-[[7-(8-chloro-1-naphthyl)-4-[(3S)-3-(cyanomethyl)-4-(2-fluoroprop-2-enoyl)piperazin-1-yl]-6,8-dihydro-5H-pyrido[3,4-d]pyrimidin-2-yl]oxymethyl]pyrrolidin-1-yl]propyl]-4-[[(7R)-8-cyclopentyl-7-ethyl-5-methyl-6-oxo-7H-pteridin-2-yl]amino]-3-methoxy-benzamide] | 500 to 1500 |  | 100 to 1000
12 | C=C(F)C(=O)N1CCN(c2nc(OC[C@@H]3CCCN3CCCOCCOCCNC(=O)c3ccc(Nc4ncc5c(n4)N(C4CCCC4)[C@H](CC)C(=O)N5C)c(OC)c3)nc3c2CCN(c2cccc4cccc(Cl)c24)C3)C[C@@H]1CC#N [Compound I-103, N-[2-[2-[3-[(2S)-2-1[[7-(8-chloro-1-naphthyl)-4-[(3S)-3-(cyanomethyl)-4-(2-fluoroprop-2-enoyl)piperazin-1-yl]-6,8-dihydro-5H-pyrido1[3,4-d]pyrimidin-2-yl]oxymethyl]pyrrolidin-1-yl]propoxy]ethoxy]ethyl]-4-[1[(7R)-8-cyclopentyl-7-ethyl-5-methyl-6-oxo-7H-pteridin-2-yl]amino]-3-methoxy-benzamide] | 500 to 1500 |  | < 100
13 | C=C(F)C(=O)N1CCN(c2nc(OC[C@@H]3CCCN3CCCOCCOCCOCCNC(=O)c3ccc(Nc4ncc5c(n4)N(C4CCCC4)[C@H](CC)C(=O)N5C)c(OC)c3)nc3c2CCN(c2cccc4cccc(Cl)c24)C3)C[C@@H]1CC#N [Compound I-104, N-[2-[2-[2-[3-[(2S)-2-[[7-(8-chloro-1-naphthyl)-4-[(3S)-3-(cyanomethyl)-4-(2-fluoroprop-2-enoyl)piperazin-1-yl]-6,8-dihydro-5H-pyrido[3,4-d]pyrimidin-2-yl]oxymethyl]pyrrolidin-1-yl]propoxy]ethoxy]ethoxy]ethyl]-4-[[(7R)-8-cyclopentyl-7-ethyl-5-methyl-6-oxo-7H-pteridin-2-yl]amino]-3-methoxy-benzamide] | 500 to 1500 |  | < 100
14 | C=C(F)C(=O)N1CCN(c2nc(OC[C@@H]3CCCN3CCCOCCOCCOCCOCCNC(=O)c3ccc(Nc4ncc5c(n4)N(C4CCCC4)[C@H](CC)C(=O)N5C)c(OC)c3)nc3c2CCN(c2cccc4cccc(Cl)c24)C3)C[C@@H]1CC#N [Compound I-105, N-[2-[2-[2-[2-[3-[(2S)-2-[[7-(8-chloro-1-naphthyl)-4-[(3S)-3-(cyanomethyl)-4-(2-fluoroprop-2-enoyl)piperazin-1-yl]-6,8-dihydro-5H-pyrido[3,4-d]pyrimidin-2-yl]oxymethyl]pyrrolidin-1-yl]propoxy]ethoxy]ethoxy]ethoxy]ethyl]-4-[[(7R)-8-cyclopentyl-7-ethyl-5-methyl-6-oxo-7H-pteridin-2-yl]amino]-3-methoxy-benzamide] | 500 to 1500 |  | < 100
